Results: US20240358692A1, “TREATMENT OF SCLERODERMA” (Aisa Pharma, Inc., priority 2023, published 2024)

Assays:
participants with SSc-RP [1] = assay: SHAQ - Visual Analog Scale - Raynaud's; format: in vivo, human; design: SHAQ Visual Analogue Scale - Raynaud's, In-Clinic Visit (Day 12), Mean / SHAQ Visual Analogue Scale - Raynaud's, In-Clinic Visit (Day 12), Median / SHAQ Visual Analogue Scale - Raynaud's: In-Clinic Visit (Day 12), Median: scale not given here; conditions: for % change VAS Raynauds: SHAQ, mITT Part A
From the text: The SHAQ includes a Raynaud's VAS, which will be reported at screening and each in-clinic visit. The absolute change in Raynaud-VAS, assessed by the participants response to the SHAQ question ‘In the past 7 days, how much have your Raynaud's interfered with your daily activities?’ at baseline and the end of each dosing period will be calculated similar to frequency data as before.
The standard, validated, patient reported outcome measures tool for SSc patients, the SHAQ, was collected at the time points specified in the study schedules (FIG. 2 and FIGS. 4A and 4B) to assess the participant's quality of life. The SHAQ included a Raynaud's VAS that will also be reported separately.

participants with SSc-RP [2] = assay: SHAQ - Alternative Disability Index; format: in vivo, human; conditions: Any Cilnidipine (N = 17); Day 12; PP Population, Part A
From the text: The SHAQ is used to calculate a Disability Index to assess the participant qualify of life. The eight categories assessed by the Disability Index are 1) dressing and grooming, 2) arising, 3) eating, 4) walking, 5) hygiene, 6) reach, 7) grip, and 8) common daily activities. For each of these categories, patients report the amount of difficulty they have in performing two or three specific activities.
There are four possible responses for the Disability Index questions: • Without any difficulty=0 • With some difficulty=1 • With much difficulty=2 • Unable to do=3 • The highest score reported by the patient for any component question of the eight categories determines the score for that category. • If a component question is left blank or the response is too ambiguous to assign a score, then the score for that category is determined by the remaining completed question(s). • If all component questions are blank or if more than one answer is given, then follow up with the respondent is required. • If the respondent's mark is between the response columns, then move it to the closest one. If it's directly between the two, move it to the higher one.
The aid and device variables are not used to calculate the alternative disability index; it is calculated by adding the scores for each of the categories and dividing by the number of categories answered. This gives a score in the 0 to 3 range.

[3] = Any Cilnidipine (N = 17), Day 12, PP Population, Part A
[4] = Cilnidipine 20 mg (N = 4), Day 12, PP Population, Part A
[5] = Pooled Cilnidipine 10 mg and Cilnidipine 10 mg + Tadalafil 5 mg (N = 9), Day 12, PP Population, Part A
[6] = Pooled Cilnidipine 20 mg and Cilnidipine 20 mg + Tadalafil 5 mg (N = 7), Modified ITT Population - Part A
[7] = Pooled Cilnidipine (N = 8), Day 12, PP Population, Part A
[8] = cilnidipine 10 mg (combination: + tadalafil 5 mg)
[9] = cilnidipine 20 mg (combination: + tadalafil 5 mg)

Structure (SMILES): COCCOC(=O)C1=C(C)NC(C)=C(C(=O)OC/C=C/c2ccccc2)C1c1cccc([N+](=O)[O-])c1 (stereo not shown) [Cilnidipine]
- SHAQ Visual Analogue Scale - Raynaud's, Change from Baseline, Mean (SD) (participants with SSc-RP [1]; [3]): −0.696 (1.3935)
- SHAQ Visual Analogue Scale - Raynaud's, Change from Baseline, Median (participants with SSc-RP [1]; [3]): −0.300
- SHAQ Visual Analogue Scale - Raynaud's, In-Clinic Visit (Day 12), Mean (SD) (participants with SSc-RP [1]; [3]): 2.022 (1.8357)
- SHAQ Visual Analogue Scale - Raynaud's, In-Clinic Visit (Day 12), Median (participants with SSc-RP [1]; [3]): 1.400
- SHAQ Visual Analogue Scale - Raynaud's, Percent Change from Baseline, Mean (SD) (participants with SSc-RP [1]; [3]): −20.44 (55.098) %
- SHAQ Visual Analogue Scale - Raynaud's, Percent Change from Baseline, Median (participants with SSc-RP [1]; [3]): −33.33%
- SHAQ Visual Analogue Scale - Raynaud's, Change from Baseline, Median (participants with SSc-RP [1]; Cilnidipine 10 mg (N = 4), Day 12, PP Population, Part A): 0.350
- SHAQ Visual Analogue Scale - Raynaud's, Change from Baseline, Mean (participants with SSc-RP [1]; [4]): −1.200
- SHAQ Visual Analogue Scale - Raynaud's, In-Clinic Visit (Day 12), Median (participants with SSc-RP [1]; [4]): 1.250
- % change VAS Raynauds (participants with SSc-RP [1]; Cilnidipine 20 mg (n = 3)): −49%
- SHAQ Visual Analogue Scale - Raynaud's, Percent Change from Baseline, Median (participants with SSc-RP [1]; Cilnidipine 20 mg, Day 12 vs Baseline, PP Population Part A, sensitivity analysis): −38.67%
- SHAQ Visual Analogue Scale - Raynaud's, Change from Baseline, Mean (participants with SSc-RP [1]; [5]): −0.414
- SHAQ Visual Analogue Scale - Raynaud's, Change from Baseline, Median (participants with SSc-RP [1]; [5]): −0.100
- SHAQ Visual Analogue Scale - Raynaud's, In-Clinic Visit (Day 12), Median (participants with SSc-RP [1]; [5]): 2.600
- SHAQ Visual Analogue Scale - Raynaud's, Percent Change from Baseline, Mean (participants with SSc-RP [1]; [5]): −9.97%
- SHAQ Visual Analogue Scale - Raynaud's, Percent Change from Baseline, Median (participants with SSc-RP [1]; [5]): −4.39%
- SHAQ Visual Analogue Scale - Raynaud's, Change from Baseline, Median (participants with SSc-RP [1]; Pooled Cilnidipine 20 mg and Cilnidipine 20 mg + Tadalafil 5 mg (N = 7), Day 12, Modified ITT Population - Part A): −0.300
- SHAQ Visual Analogue Scale - Raynaud's, In-Clinic Visit (Day 12), Mean (participants with SSc-RP [1]; [6]): 1.300
- SHAQ Visual Analogue Scale - Raynaud's, In-Clinic Visit (Day 12), Median (participants with SSc-RP [1]; [6]): 0.600
- SHAQ Visual Analogue Scale - Raynaud's, In-Clinic Visit (Day 12), Median (participants with SSc-RP [1]; Pooled Cilnidipine 20 mg and Cilnidipine 20 mg + Tadalafil 5 mg (N = 8), Day 12, PP Population, Part A): 0.850
- SHAQ Visual Analogue Scale - Raynaud's, Change from Baseline, Mean (SD) (participants with SSc-RP [1]; [7]): −0.438 (1.2094)
- SHAQ Visual Analogue Scale - Raynaud's, In-Clinic Visit (Day 12), Mean (participants with SSc-RP [1]; [7]): 1.900
- SHAQ Visual Analogue Scale - Raynaud's, In-Clinic Visit (Day 12), Mean (SD) (participants with SSc-RP [1]; [7]): 1.900 (1.6861)
- SHAQ Visual Analogue Scale - Raynaud's, Percent Change from Baseline, Mean (SD) (participants with SSc-RP [1]; [7]): −18.62 (75.571) %
- % change VAS Raynauds (participants with SSc-RP [1]; Pooled Cilnidipine (n = 7)): −17%
- SHAQ Visual Analogue Scale - Raynaud's: Change from Baseline, Median (participants with SSc-RP [1]; Sensitivity Analysis (diagnosis of SSc), Modified ITT, Part A, Day 12, Any Cilnidipine (N = 14)): −0.300
- SHAQ Visual Analogue Scale - Raynaud's: Percent Change from Baseline, Mean (participants with SSc-RP [1]; Sensitivity Analysis (diagnosis of SSc), Modified ITT, Part A, Day 12, Pooled Cilnidipine (N = 6)): −18.64%
- SHAQ Visual Analogue Scale - Raynaud's: In-Clinic Visit (Day 12), Median (participants with SSc-RP [1]; Sensitivity Analysis (diagnosis of SSc), Modified ITT, Part A, Day 12, arms Cilnidipine 10 mg, Tadalafil 5 mg, Cilnidipine 10 mg + Tadalafil 5 mg): 2.600
- SHAQ Visual Analogue Scale - Raynaud's: In-Clinic Visit (Day 12), Median (participants with SSc-RP [1]; Sensitivity Analysis (diagnosis of SSc), Modified ITT, Part A, Day 12, arms Cilnidipine 20 mg, Cilnidipine 20 mg + Tadalafil 5 mg): 1.100
- VAS Raynaud's Change from Baseline Max (participants with SSc-RP [1]; [8]): 1.50
- VAS Raynaud's Change from Baseline Median (participants with SSc-RP [1]; [8]): 0.350
- VAS Raynaud's Change from Baseline Min (participants with SSc-RP [1]; [8]): −0.90
- VAS Raynaud's Change from Baseline Q1 (participants with SSc-RP [1]; [8]): −0.500
- VAS Raynaud's Change from Baseline Q3 (participants with SSc-RP [1]; [8]): 1.150
- VAS Raynaud's Day 12 Max (participants with SSc-RP [1]; [8]): 4.30
- VAS Raynaud's Day 12 Median (participants with SSc-RP [1]; [8]): 1.700
- VAS Raynaud's Day 12 Min (participants with SSc-RP [1]; [8]): 0.00
- VAS Raynaud's Day 12 Q1 (participants with SSc-RP [1]; [8]): 0.400
- VAS Raynaud's Day 12 Q3 (participants with SSc-RP [1]; [8]): 3.450
- VAS Raynaud's Percent Change from Baseline Max (participants with SSc-RP [1]; [8]): 136.4%
- VAS Raynaud's Percent Change from Baseline Mean (participants with SSc-RP [1]; [8]): 11.36%
- VAS Raynaud's Percent Change from Baseline Median (participants with SSc-RP [1]; [8]): −2.27%
- VAS Raynaud's Percent Change from Baseline Min (participants with SSc-RP [1]; [8]): −100.0%
- VAS Raynaud's Percent Change from Baseline Q1 (participants with SSc-RP [1]; [8]): −100.00%
- VAS Raynaud's Change from Baseline Max (participants with SSc-RP [1]; [9]): −0.30
- VAS Raynaud's Change from Baseline Mean (participants with SSc-RP [1]; [9]): −1.267
- VAS Raynaud's Change from Baseline Median (participants with SSc-RP [1]; [9]): −1.100
- VAS Raynaud's Change from Baseline Min (participants with SSc-RP [1]; [9]): −2.40
- VAS Raynaud's Change from Baseline Q1 (participants with SSc-RP [1]; [9]): −2.400
- VAS Raynaud's Change from Baseline Q3 (participants with SSc-RP [1]; [9]): −0.300
- VAS Raynaud's Day 12 Max (participants with SSc-RP [1]; [9]): 1.40
- VAS Raynaud's Day 12 Median (participants with SSc-RP [1]; [9]): 1.100
- VAS Raynaud's Day 12 Min (participants with SSc-RP [1]; [9]): 0.60
- VAS Raynaud's Day 12 Q1 (participants with SSc-RP [1]; [9]): 0.600
- VAS Raynaud's Day 12 Q3 (participants with SSc-RP [1]; [9]): 1.400
- VAS Raynaud's Percent Change from Baseline Mean (participants with SSc-RP [1]; [9]): −48.63%
- VAS Raynaud's Percent Change from Baseline Median (participants with SSc-RP [1]; [9]): −44.00%
- VAS Raynaud's Percent Change from Baseline Min (participants with SSc-RP [1]; [9]): −68.6%
- VAS Raynaud's Percent Change from Baseline Q1 (participants with SSc-RP [1]; [9]): −68.57%
- VAS Raynaud's Percent Change from Baseline Q3 (participants with SSc-RP [1]; [9]): −33.33%
- SHAQ Alternative Disability Index, Change from Baseline, Mean (SD) (participants with SSc-RP [2]): −0.006 (0.1912)
